For assay [1], the target named is T1, human GLP1R (Homo sapiens, UniProt P43220).
T1 construct: expressed in transfected cells; grown under Blasticidin and Hygromycin selection
In words: cAMP activity assay in cells expressing human GLP1R. The following applies: cAMP production, HitHunter cAMPXS, 1 hour; assay buffer with or without 20% human serum (not given). It counts as cell-based. Here is the method: (§1) Activity of the peptides at the Glucagon receptor (GCGR) and GLP-1 receptor (GLP1R) was measured in a cAMP activity assay.
(§2) Peptides were dissolved in 100% DMSO and serially diluted to generate 10 point titrations. The peptide solutions were then transferred into 384-well assay plates (150 nL/well). Assay ready frozen cells expressing human GLP1R or human GCGR were suspended in growth media consisting of DMEM medium (GIBCO), 10% FBS (GIBCO), 1× NEAA(GIBCO), 1× P/S (GIBCO), 10 ug/ml Blasticidin (GIBCO) and 200 μg/mL Hygromycin (GIBCO). Cells were then diluted in assay buffer consisting of PBS (GIBCO), 7.5% BSA (Perkin Elmer), 100 μM RO 20-1724 (Sigma), with or without 20% human serum (MP Biomedical). The cell suspensions (15 μL) were then added to the assay plates containing the peptide solutions (30,000 cells/well for human GCGR; 10,000 cells/well for human GLP1R). The cells were incubated for 1 hour at room temperature in the dark. Production of cAMP was determined using HitHunter™ cAMPXS kits (DiscoverX) following manufacturer protocol. The plates were incubated for overnight at room temperature in the dark. Luminescence was measured using an EnVision Multilabel plate reader (Perkin Elmer). Native GLP-1 and Glucagon (Bachem) are used as control peptides. EC50 values were calculated using uses a 4 parameter logistic fit based on the Levenberg-Marquardt algorithm.
For orientation: Changes in cAMP serve as a functional read-out for many G protein-coupled receptors.

Assay [2] has as its target T2, human GCGR (Homo sapiens, UniProt P47871).
T2 construct: expressed in transfected cells; grown under Blasticidin and Hygromycin selection
In words: cAMP activity assay in cells expressing human GCGR. It counts as cell-based. The following applies: ratio of human GCGR EC50 to human GLP1R EC50. On the procedure: as §1, §2

Starred links: 1 amine or outer side, 2 acyl side, 3 side chain; linkers in the order of their positions; H or OH if unused. Positions of bridges follow the written chain, without caps; N, C: chain ends. Non-standard residues stand in square brackets, D forms with d. Residues, ends and D or L forms follow the SMILES beside them. Groups on a side chain read outwards from the residue. Triazole bridges read from a SMILES are 1,4-linked. *: point of attachment. Lys(N3) = [N-]=[N+]=NCCCC[C@H](N)C(=O)O; γGlu = O=C(O)[C@H](CCC(=O)[*:2])N[*:1]; Palmitoyl = CCCCCCCCCCCCCCCC(=O)*; dPra = C#CC[C@@H](N)C(=O)O; Nle = CCCC[C@H](N)C(=O)O; Aib = CC(C)(N)C(=O)O

T2 sequence (P47871 26-477): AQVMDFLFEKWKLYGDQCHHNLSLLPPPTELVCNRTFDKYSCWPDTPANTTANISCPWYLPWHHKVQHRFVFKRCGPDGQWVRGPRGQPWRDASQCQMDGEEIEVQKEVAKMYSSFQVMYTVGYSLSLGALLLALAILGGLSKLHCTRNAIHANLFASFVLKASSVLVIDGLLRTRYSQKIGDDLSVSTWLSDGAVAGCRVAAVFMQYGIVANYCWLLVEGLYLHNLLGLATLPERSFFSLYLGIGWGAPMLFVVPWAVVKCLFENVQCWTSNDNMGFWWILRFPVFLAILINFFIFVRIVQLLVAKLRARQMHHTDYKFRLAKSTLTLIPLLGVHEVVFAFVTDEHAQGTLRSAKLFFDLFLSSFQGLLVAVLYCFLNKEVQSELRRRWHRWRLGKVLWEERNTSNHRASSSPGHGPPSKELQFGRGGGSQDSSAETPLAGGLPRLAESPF
T1 sequence (P43220 24-463): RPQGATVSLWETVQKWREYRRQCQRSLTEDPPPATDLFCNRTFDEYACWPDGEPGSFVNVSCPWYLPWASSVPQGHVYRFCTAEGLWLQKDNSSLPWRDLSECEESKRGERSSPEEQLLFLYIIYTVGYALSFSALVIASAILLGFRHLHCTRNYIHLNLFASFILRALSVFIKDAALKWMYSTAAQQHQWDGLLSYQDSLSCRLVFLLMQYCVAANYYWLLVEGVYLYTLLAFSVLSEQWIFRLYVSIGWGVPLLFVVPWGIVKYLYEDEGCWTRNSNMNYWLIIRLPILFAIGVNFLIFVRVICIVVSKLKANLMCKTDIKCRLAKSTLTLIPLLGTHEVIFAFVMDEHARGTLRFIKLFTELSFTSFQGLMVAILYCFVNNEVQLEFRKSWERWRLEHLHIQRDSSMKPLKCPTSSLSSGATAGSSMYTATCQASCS

What is called EC50 is the midpoint of the concentration-response curve. `CCCCCCCCCCCCCCCC(=O)N[C@@H](CCC(=O)N[C@@H](CCC(=O)NCCCC[C@H](NC(=O)[C@H](CC(=O)O)NC(=O)[C@H](CO)NC(=O)[C@@H](NC(=O)[C@H](Cc1ccccc1)NC(=O)[C@@H](NC(=O)CNC(=O)[C@H](CCC(N)=O)NC(=O)C(C)(C)NC(=O)[C@@H](N)Cc1c[nH]cn1)[C@@H](C)O)[C@@H](C)O)C(=O)N[C@@H](CO)C(=O)N[C@@H](CCCCN)C(=O)N[C@@H](Cc1ccc(O)cc1)C(=O)N[C@@H](CC(C)C)C(=O)N[C@@H](CC(=O)O)C(=O)N[C@@H]1Cc2cn(nn2)CCCC[C@@H](C(=O)N[C@@H](CC(=O)O)C(=O)N[C@@H](Cc2ccccc2)C(=O)N[C@H](C(=O)N[C@@H](CCC(N)=O)C(=O)N[C@@H](Cc2c[nH]c3ccccc23)C(=O)N[C@@H](CC(C)C)C(=O)N[C@@H](CCCC)C(=O)N[C@@H](CC(=O)O)C(=O)N[C@H](C(N)=O)[C@@H](C)O)C(C)C)NC(=O)[C@H](C)NC(=O)[C@H](C)NC(=O)[C@H](CCCNC(=N)N)NC1=O)C(=O)O)C(=O)O` [compound 16] (H-H[Aib]QGTFTSDK([γGlu-γGlu-Palmitoyl])SKYLD[dPra]RAA[Lys(N3)]DFVQWL[Nle]DT-NH2; triazole 16-20; N-terminus assumed) came in with an EC50 in assay [1] of 0.042 nM. The “hGCGR/hGLP1R (hTone)” value in assay [2] is recorded as 1.13.

`CCCCCCCCCCCCCCCC(=O)N[C@@H](CCC(=O)N[C@@H](CCC(=O)NCCCC[C@H](NC(=O)[C@H](CC(=O)O)NC(=O)[C@H](CO)NC(=O)[C@@H](NC(=O)[C@H](Cc1ccccc1)NC(=O)[C@@H](NC(=O)CNC(=O)[C@H](CCC(N)=O)NC(=O)[C@@H](CO)NC(=O)[C@@H](N)Cc1c[nH]cn1)[C@@H](C)O)[C@@H](C)O)C(=O)N[C@@H](CO)C(=O)N[C@@H](CCCCN)C(=O)N[C@@H](Cc1ccc(O)cc1)C(=O)N[C@@H](CC(C)C)C(=O)N[C@@H](CC(=O)O)C(=O)N[C@@H](C)C(=O)N[C@@H]1Cc2cn(nn2)CCCC[C@@H](C(=O)N[C@@H](Cc2ccccc2)C(=O)N[C@H](C(=O)N[C@@H](CCC(N)=O)C(=O)N[C@@H](Cc2c[nH]c3ccccc23)C(=O)N[C@@H](CC(C)C)C(=O)N[C@@H](CC(C)C)C(=O)N[C@@H](CC(=O)O)C(=O)N[C@H](C(N)=O)[C@@H](C)O)C(C)C)NC(=O)[C@H](CCC(N)=O)NC(=O)[C@H](C)NC(=O)[C@H](C)NC1=O)C(=O)O)C(=O)O` [compound 14] (H-H[dS]QGTFTSDK([γGlu-γGlu-Palmitoyl])SKYLDA[dPra]AAQ[Lys(N3)]FVQWLLDT-NH2; triazole 17-21): the “hGCGR/hGLP1R (hTone)” value in assay [2] was 0.5.

Take `CCCCCCCCCCCCCCCC(=O)N[C@@H](CCC(=O)N[C@@H](CCC(=O)NCCCC[C@H](NC(=O)[C@H](CC(=O)O)NC(=O)[C@H](CO)NC(=O)[C@@H](NC(=O)[C@H](Cc1ccccc1)NC(=O)[C@@H](NC(=O)CNC(=O)[C@H](CCC(N)=O)NC(=O)[C@@H](CO)NC(=O)[C@@H](N)Cc1c[nH]cn1)[C@@H](C)O)[C@@H](C)O)C(=O)N[C@@H](CO)C(=O)N[C@@H](CCCCN)C(=O)N[C@@H](Cc1ccc(O)cc1)C(=O)N[C@@H](CC(C)C)C(=O)N[C@@H](CC(=O)O)C(=O)N[C@@H](C)C(=O)N[C@@H](CCCNC(=N)N)C(=O)N[C@@H](C)C(=O)N[C@@H](C)C(=O)N[C@@H](CCC(N)=O)C(=O)N[C@@H](CC(=O)O)C(=O)N[C@@H](Cc1ccccc1)C(=O)N[C@H](C(=O)N[C@@H]1Cc2cn(nn2)CCCC[C@@H](C(=O)N[C@H](C(N)=O)[C@@H](C)O)NC(=O)[C@H](CC(C)C)NC(=O)[C@H](CC(C)C)NC(=O)[C@H](Cc2c[nH]c3ccccc23)NC1=O)C(C)C)C(=O)O)C(=O)O` [compound 15] (H-H[dS]QGTFTSDK([γGlu-γGlu-Palmitoyl])SKYLDARAAQDFV[dPra]WLL[Lys(N3)]T-NH2; triazole 24-28): the “hGCGR/hGLP1R (hTone)” value in assay [2] was 0.72. For the compound `CCCCCCCCCCCCCCCC(=O)N[C@@H](CCC(=O)N[C@@H](CCC(=O)NCCCC[C@H](NC(=O)[C@H](CC(=O)O)NC(=O)[C@H](CO)NC(=O)[C@@H](NC(=O)[C@H](Cc1ccccc1)NC(=O)[C@@H](NC(=O)CNC(=O)[C@H](CCC(N)=O)NC(=O)[C@@H](CO)NC(=O)[C@@H](N)Cc1c[nH]cn1)[C@@H](C)O)[C@@H](C)O)C(=O)N[C@@H](CO)C(=O)N[C@@H](CCCCN)C(=O)N[C@@H](Cc1ccc(O)cc1)C(=O)N[C@@H](CC(C)C)C(=O)N[C@@H](CC(=O)O)C(=O)N[C@@H](CCC(=O)O)C(=O)N[C@@H](CCCNC(=N)N)C(=O)N[C@@H](C)C(=O)N[C@@H](C)C(=O)N[C@@H]1Cc2cn(nn2)CCCC[C@@H](C(=O)N[C@@H](Cc2c[nH]c3ccccc23)C(=O)N[C@@H](CC(C)C)C(=O)N[C@@H](CC(C)C)C(=O)N[C@@H](CC(=O)O)C(=O)N[C@H](C(N)=O)[C@@H](C)O)NC(=O)[C@H](C(C)C)NC(=O)[C@H](Cc2ccccc2)NC(=O)[C@H](CC(=O)O)NC1=O)C(=O)O)C(=O)O` [compound 7] (H-H[dS]QGTFTSDK([γGlu-γGlu-Palmitoyl])SKYLDERAA[dPra]DFV[Lys(N3)]WLLDT-NH2; triazole 20-24), in assay [1], the EC50 was 0.042 nM. For the same compound, the “hGCGR/hGLP1R (hTone)” value in assay [2] is listed as 0.95.

These data come from patent US20230063794A1, “STAPLED TRIAZOLE CO-AGONISTS OF THE GLUCAGON AND GLP-1 RECEPTORS” (Merck Sharp & Dohme LLC, priority 2019, published 2023).
